Results on ten compounds are retold here after PubChem BioAssay (NCI).

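Cells were grown in 96-well plates and exposed to each compound for 48 hours at five concentrations; endpoints were interpolated linearly between bracketing concentrations, or set to the highest concentration if not reached. GI50: concentration for 50% inhibition of growth. TGI denotes the concentration required for complete inhibition of growth.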

Common to all, as to test: NCI tumour cell line growth inhibition, 48 h
Assay [1] relates to SK-MEL-28 melanoma.
The subject of assay [2] is KM12 colon.
Assay [3] relates to SK-MEL-2 melanoma.
For assay [4], the system named is UACC-257 melanoma.
For assay [5], the system named is NCI-H23 lung.
The test system of assay [6] is HCT-15 colon.
Assay [7] concerns A549 NSCLC.
The subject of assay [8] is CCRF-CEM leukemia.
The subject of assay [9] is SK-MEL-5 melanoma.
Assay [10] relates to HOP-92 NSCLC.

On to `C#CCNC(=O)ON1C(=O)CCC1=O`, for which the TGI in assay [1], in assay [2], in assay [3], in [4], in [5] and in assay [6] was more than 100 µM each time. In addition, the TGI in assay [7] and in [8] was more than 100 µM each time.
In the case of `CCCCCN(CCCCC)CC(O)c1cc(Cl)ccc1OC` (stereo unspecified), the GI50 is 1.63 µM in assay [1]; 5.75 µM in assay [9]; 7.35 µM in [2]; 3.22 µM in assay [3]; 4.98 µM in assay [4]; 5.79 µM in assay [5]. Besides, the results for the GI50 in [6], in [7] and in assay [8] were 6.32 µM, 6.61 µM and 11.3 µM, respectively. In addition, the TGI in [1] turned out to be 3.51 µM; in assay [9] it was 18.5 µM; in assay [2], 21.3 µM; in assay [3] it was 14.2 µM; in assay [4], 18.7 µM; in [5], 20.9 µM. The TGI in assay [6] was determined as 21.5 µM; in assay [7], 24.7 µM; in [8], 36 µM.
As to `COc1ccc(OC(C(=O)O)C(C)C)c2c1CCCC2=O` (stereo unspecified), the TGI in assay [1], in assay [9], in assay [2], in assay [3], in [4] and in assay [5] was more than 100 µM in each case. For the same compound, the TGI in [6], in assay [7] and in assay [8] was more than 100 µM in each case.
`O=C1OC(c2ccccc2)=N/C1=C\c1ccc(Oc2ccc(Cl)c(Cl)c2)cc1`: the TGI in assay [9] is 81.6 µM; in assay [2], more than 100 µM; in assay [3] it was more than 100 µM; in assay [4], more than 100 µM; in assay [10], more than 100 µM; in assay [5], more than 100 µM. Moreover, the TGI in assay [6] is more than 100 µM; in [7] it was more than 100 µM; in assay [8], 59.9 µM.
Regarding `O=[N+]([O-])c1cccc(-c2nc(-c3ccccc3)c(-c3ccccc3)[nH]2)c1`, the TGI in [1], in [9], in assay [3], in assay [4], in assay [5] and in [7] was more than 100 µM each time. In [8], this compound gave a TGI of more than 100 µM.
Consider `[O-]c1ccccc1C=Nc1ccc2c(c1)CCC2.[O-]c1ccccc1C=Nc1ccc2c(c1)CCC2.[O]=[U+2]=[O]`, for which the GI50 is more than 100 µM in [1]; 60.8 µM in assay [9]; more than 100 µM in assay [2]; more than 100 µM in assay [3]; more than 100 µM in assay [4]; more than 100 µM in [5]. Also, the values for the GI50 in assay [6], in assay [7] and in assay [8] were 28.3 µM, more than 100 µM and 8.39 µM, respectively. Besides, the TGI in assay [1], in [9], in assay [2], in assay [3], in [4] and in assay [5] was more than 100 µM throughout. Also, the TGI in [6], in [7] and in assay [8] was more than 100 µM each time.
Consider `COc1ccc(NC(=O)/C=C(C)/C=C/C=C(C)/C=C/C2=C(C)CCCC2(C)C)cc1`, for which the GI50 in assay [1] was 4.13 µM; in [9] it was 9.06 µM; in [2], 4.4 µM; in [3], 13.3 µM; in assay [4], 12.3 µM; in [5] it was 9.78 µM. Further, the GI50 in [6] was 4.51 µM; in assay [7], 14.9 µM; in [8], 2.05 µM. Moreover, the TGI in [1] came out at 14.1 µM; in assay [9], 21.1 µM; in assay [2], 14.5 µM; in assay [3], 26.2 µM; in assay [4] it was 26.7 µM; in assay [5], 24.3 µM. The values for the TGI in assay [6], in assay [7] and in assay [8] were 18.1 µM, 30.7 µM and 4.67 µM, respectively.
Regarding `CCn1c(-c2cc3c([nH]c4ccccc43)c(-c3cccc(O)c3)n2)n[nH]c1=S`, the GI50 in assay [1] is 2.63 µM; in [9], 1.45 µM; in [2], 3.24 µM; in assay [3], 2.05 µM; in assay [4] it was 4.11 µM; in assay [5], 3.11 µM. Also, the GI50 is 3.37 µM in assay [6], 4 µM in assay [7] and 2.93 µM in assay [8]. The TGI turned out to be 12.3 µM in assay [1]; 3.06 µM in assay [9]; 12.4 µM in [2]; 5.81 µM in [3]; 16.4 µM in [4]; 13.2 µM in assay [5]. Further, the TGI in assay [6] came out at 16.1 µM; in assay [7], 18.8 µM; in [8], 12.4 µM.
Take `COc1ccc(Nc2nc3ccccc3c3occc23)cc1`: the GI50 is 7.19 µM in [1]; 5.08 µM in assay [9]; 1.78 µM in [2]; 8.68 µM in assay [3]; 19.8 µM in assay [4]; 7.62 µM in assay [10]. Moreover, the GI50 in assay [5] is 5.72 µM; in [6], 2.95 µM; in assay [7], 32.9 µM. Also, the TGI is 18.8 µM in assay [1]; 11.1 µM in assay [9]; 7.99 µM in assay [2]; 22.5 µM in [3]; more than 50 µM in assay [4]; 21.8 µM in assay [10]. The TGI was 12.4 µM in assay [5], 10.7 µM in assay [6] and more than 50 µM in assay [7].
For the compound `CN(Cc1ccc(C(F)(F)F)cc1)CC(O)C(=O)Nc1ccc(Cl)cc1` (stereo unspecified), the GI50 was 1.62 µM in [1]; 1.67 µM in assay [9]; 1.54 µM in assay [2]; 1.93 µM in [3]; 1.81 µM in assay [4]; 1.08 µM in assay [10]. Moreover, the GI50 in [5] was 1.32 µM; in assay [6], 1.28 µM; in assay [7], 1.69 µM. Also, the TGI turned out to be 3.16 µM in assay [1]; 3.11 µM in assay [9]; 2.97 µM in assay [2]; 3.62 µM in [3]; 3.38 µM in assay [4]; 2.37 µM in [10]. Also, the figures for the TGI in assay [5], in assay [6] and in assay [7] were 2.69 µM, 2.61 µM and 3.16 µM, respectively.
